“And” between values parts separate entries of the source, which are not always exact repeats. Identical values can stand only once.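 Values below derive from 48-hour exposures of cells grown in 96-well plates, with endpoints linearly interpolated between the two concentrations bracketing the appropriate inhibition level. GI50 marks 50% less growth. TGI: concentration producing complete growth inhibition.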
Legend:
Experiment in all cases: NCI anticancer screen, dose series, 48 h
[1] = system: DU-145 prostate
[2] = system: HS 578T breast
[3] = system: MCF7 breast
[4] = system: NCI-H23 lung
[5] = system: OVCAR-3 ovarian
[6] = system: RPMI-8226 leukemia
[7] = system: SF-268 CNS
[8] = system: SF-295 CNS
[9] = system: SNB-75 CNS
[10] = system: T-47D breast

SMILES	GI50 [1] [µM]	GI50 [2] [µM]	TGI [2] [µM]	GI50 [3] [µM]	TGI [3] [µM]	GI50 [4] [µM]	TGI [4] [µM]	GI50 [5] [µM]	GI50 [6] [µM]	TGI [6]	GI50 [7] [µM]	TGI [7]	GI50 [8] [µM]	TGI [8]	GI50 [9] [µM]	TGI [9]	TGI [1] [µM]	TGI [5] [µM]	TGI [10] [µM]	GI50 [10] [µM]
COC(=O)[C@@H](C)C[C@H](Cc1ccccc1)NC(=O)c1nc([C@@H](C[C@H](C(C)C)N(C)C(=O)[C@@H](NC(=O)[C@H]2C[C@H](O)CCN2C)C(C)C)OC(C)=O)sc1C(C)C	0.00395	0.0122	> 8.26	< 0.00111	> 11.1	0.0232	> 11.1	0.00148	0.00173	> 9.92 µM	0.00957	> 11.1 µM	0.0164	> 11.1 µM	0.00462	3.85 µM				
COc1ccc2c(c1)[C@@H](NC(C)=O)CCc1cc(OC)c(OC)c(OC)c1-2			> 100		> 100		2.88			> 100 µM		> 90.4 µM		< 0.215 µM		12.9 µM	0.0433	< 0.215	> 100	
O=C(O)/C=C/c1ccc(O)c(O)c1							> 100			> 100 µM		> 100 µM		> 100 µM		> 100 µM	> 100	> 100		
Cc1c(C(Cc2ccccc2N(C)C(=O)/C=C\C(=O)O)c2c[nH]c3ccccc23)c2ccccc2n1C (stereo not given)							32.8					35.9 µM		28.8 µM		33.7 µM		27.7		
COc1ccc(C(=O)C(C(=O)CCC(=O)Nc2ccc(Cl)c(Cl)c2)c2ccc(OC)cc2)cc1 (stereo not given)							> 100			> 100 µM		> 100 µM		> 100 µM		> 100 µM		> 100		
NS(=O)(=O)c1ccc(N(/C=C/C(=O)C(F)(F)F)CC(=O)c2ccc(F)cc2)cc1	20.6			> 100	> 100	20.4	57.7	19.7	19.5	55.8 µM	34.8	> 100 µM	26.4	85.7 µM			52.2	47.3	> 100	43
O=C([CH-]C(=O)c1ccccc1)c1ccccc1.O=C([CH-]C(=O)c1ccccc1)c1ccccc1.O=C([CH-]C(=O)c1ccccc1)c1ccccc1.[Ga+3]						47.4	> 100	> 100	27	> 100 µM	35.1	> 100 µM	38.7	> 100 µM	64.7	> 100 µM		> 100		
COc1ccc(C2COc3c(ccc(OC)c3OC)C2=O)cc1OC (stereo not given)							> 100			> 100 µM		> 100 µM		> 100 µM		> 100 µM		> 100		
CC[C@@]1(OP(=O)(O)O)C(=O)OCc2c1cc1n(c2=O)Cc2cc3ccccc3nc2-1					1.55	0.0827		0.93	0.187	2.27 µM and 4.58 µM	0.0774	5.28 µM and 9.45 µM	0.0249	0.866 µM and 1.97 µM	0.143	3.31 µM and 17.3 µM	0.598	3.79	0.867	
C=CCc1cccc(C=O)c1O	> 100	> 100	> 100	7.9	> 100	> 100	> 100		7.72	> 100 µM	25.2	> 100 µM	> 100	> 100 µM	10.6	> 100 µM	> 100		> 100	10.2
CCN1CCN(CCC(=O)Nc2cccc(-n3cc(-c4ccncc4)c(-c4ccc(Cl)c(OC)c4)n3)c2)CC1	0.432	0.454	3.85	0.267	1.45	1.04	3.56	0.352			0.663	2.43 µM	0.36	1.63 µM	0.392	6.82 µM	5.96	1.43	4.7	0.841
Cc1ccc(S(=O)c2ccccc2[N+](=O)[O-])cc1 (stereo not given)							> 100			> 100 µM				> 100 µM				> 100		
Cn1cc(C2NC(=O)c3ccccc3N2)c2ccccc21 (stereo not given)					5.1		> 100					> 100 µM						2.03		
CN(C)CC1CC/C(=C\c2ccc(Cl)c(Cl)c2)C1=O (stereo not given)							47.3			8.92 µM		> 74.3 µM		> 78.4 µM		> 66.6 µM		> 61.5		
Cc1ccc(N)c(S)c1			> 100		38.8		36.3					46.2 µM		43.4 µM		40.5 µM	29.1	44	33.9	
NC1=C(O)c2cccc3cccc(c23)C1=O							> 100			> 100 µM		> 100 µM		> 100 µM		> 100 µM		> 100		
N#CC(C(=O)CCCC(=O)Nc1ccccc1[N+](=O)[O-])c1c(Cl)cccc1Cl (stereo not given)							> 100			> 100 µM		> 100 µM		> 100 µM		> 100 µM		> 100		
O=S1OC(c2ccccc2)(c2ccccc2)C(c2ccccc2)(c2ccccc2)O1							> 100			> 49.4 µM		> 100 µM		> 100 µM		> 100 µM		> 100		
O=C(NCc1cn(Cc2cccc(Oc3ccccc3)c2)nn1)c1cccnc1Nc1ccc(F)cc1	8.58	30.9	> 100			52.1	> 100	17.7	> 100	> 100 µM	21	> 100 µM	5.66	47.6 µM	3.81	21.3 µM	> 100	> 100	> 100	21.4
O=C1NN2CC(c3ccccc3)=NN=C2c2ccccc21	31.3	68	> 100	15.8	37.2	17.7	38.7	20.1	19.4	41.7 µM	26.8	82.3 µM	32.8	> 100 µM	> 100	> 100 µM	99	48.2		
